In publication PMC7827406, “Structure–Activity Relationship (SAR) Study of Spautin-1 to Entail the Discovery of Novel NEK4 Inhibitors” (International Journal of Molecular Sciences, 2021):
Where two headings read alike, the source gives them in different places.

Key:
Assay in all cases: biochemical
Design in all cases: Eurofins KinaseProfiler full panel at Km ATP, residual kinase activity (%) relative to DMSO
SIK(h) = biological target: T1, SIK(h) (Homo sapiens, UniProt P57059)
T1 construct: gene SIK1
T1 sequence (P57059 whole entry): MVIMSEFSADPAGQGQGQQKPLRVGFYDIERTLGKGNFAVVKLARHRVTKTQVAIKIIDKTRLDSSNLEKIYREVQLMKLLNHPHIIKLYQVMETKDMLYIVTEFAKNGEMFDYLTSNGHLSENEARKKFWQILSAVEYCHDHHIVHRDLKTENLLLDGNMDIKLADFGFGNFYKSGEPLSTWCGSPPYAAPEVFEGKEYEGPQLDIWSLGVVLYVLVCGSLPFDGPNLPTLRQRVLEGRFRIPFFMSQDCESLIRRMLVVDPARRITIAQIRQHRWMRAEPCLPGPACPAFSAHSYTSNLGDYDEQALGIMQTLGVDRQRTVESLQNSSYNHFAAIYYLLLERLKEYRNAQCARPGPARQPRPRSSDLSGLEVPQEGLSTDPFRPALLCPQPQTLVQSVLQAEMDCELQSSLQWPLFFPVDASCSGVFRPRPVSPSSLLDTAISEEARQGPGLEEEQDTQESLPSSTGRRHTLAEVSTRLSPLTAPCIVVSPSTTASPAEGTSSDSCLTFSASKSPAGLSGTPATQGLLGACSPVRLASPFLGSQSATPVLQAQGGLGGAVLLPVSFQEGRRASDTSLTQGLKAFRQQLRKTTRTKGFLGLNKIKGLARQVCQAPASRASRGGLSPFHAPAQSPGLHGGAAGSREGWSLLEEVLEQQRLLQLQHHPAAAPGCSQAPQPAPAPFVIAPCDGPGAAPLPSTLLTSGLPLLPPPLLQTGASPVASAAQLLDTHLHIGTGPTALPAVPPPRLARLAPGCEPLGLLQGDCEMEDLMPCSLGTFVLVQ
Procedure, shortened: (§1)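 Two 10 µM single-concentration screens were run: a competition-binding screen, in which DNA-tagged kinase bound to immobilized ligands was quantified by qPCR, and a radiometric activity panel at Km ATP. Each is expressed as residual kinase activity (%).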

MAPKAP-K3(h) = biological target: T2, MAPKAP-K3(h) (Homo sapiens, UniProt Q16644)
T2 construct: gene MAPKAPK3
T2 sequence (Q16644 whole entry): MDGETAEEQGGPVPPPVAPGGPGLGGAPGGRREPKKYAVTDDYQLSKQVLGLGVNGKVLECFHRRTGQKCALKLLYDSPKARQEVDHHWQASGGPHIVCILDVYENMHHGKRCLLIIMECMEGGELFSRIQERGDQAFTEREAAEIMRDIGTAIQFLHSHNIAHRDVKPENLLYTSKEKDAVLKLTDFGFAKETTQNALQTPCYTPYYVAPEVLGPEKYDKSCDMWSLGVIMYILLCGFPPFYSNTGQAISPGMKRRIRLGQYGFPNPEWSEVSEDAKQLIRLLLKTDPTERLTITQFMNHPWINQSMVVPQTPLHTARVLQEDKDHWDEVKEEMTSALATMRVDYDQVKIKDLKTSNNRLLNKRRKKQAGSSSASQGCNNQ
Procedure, shortened: as §1

Flt1(h) = Flt1(h) (Homo sapiens, UniProt P17948)
Chain of Flt1(h) (P17948 whole entry): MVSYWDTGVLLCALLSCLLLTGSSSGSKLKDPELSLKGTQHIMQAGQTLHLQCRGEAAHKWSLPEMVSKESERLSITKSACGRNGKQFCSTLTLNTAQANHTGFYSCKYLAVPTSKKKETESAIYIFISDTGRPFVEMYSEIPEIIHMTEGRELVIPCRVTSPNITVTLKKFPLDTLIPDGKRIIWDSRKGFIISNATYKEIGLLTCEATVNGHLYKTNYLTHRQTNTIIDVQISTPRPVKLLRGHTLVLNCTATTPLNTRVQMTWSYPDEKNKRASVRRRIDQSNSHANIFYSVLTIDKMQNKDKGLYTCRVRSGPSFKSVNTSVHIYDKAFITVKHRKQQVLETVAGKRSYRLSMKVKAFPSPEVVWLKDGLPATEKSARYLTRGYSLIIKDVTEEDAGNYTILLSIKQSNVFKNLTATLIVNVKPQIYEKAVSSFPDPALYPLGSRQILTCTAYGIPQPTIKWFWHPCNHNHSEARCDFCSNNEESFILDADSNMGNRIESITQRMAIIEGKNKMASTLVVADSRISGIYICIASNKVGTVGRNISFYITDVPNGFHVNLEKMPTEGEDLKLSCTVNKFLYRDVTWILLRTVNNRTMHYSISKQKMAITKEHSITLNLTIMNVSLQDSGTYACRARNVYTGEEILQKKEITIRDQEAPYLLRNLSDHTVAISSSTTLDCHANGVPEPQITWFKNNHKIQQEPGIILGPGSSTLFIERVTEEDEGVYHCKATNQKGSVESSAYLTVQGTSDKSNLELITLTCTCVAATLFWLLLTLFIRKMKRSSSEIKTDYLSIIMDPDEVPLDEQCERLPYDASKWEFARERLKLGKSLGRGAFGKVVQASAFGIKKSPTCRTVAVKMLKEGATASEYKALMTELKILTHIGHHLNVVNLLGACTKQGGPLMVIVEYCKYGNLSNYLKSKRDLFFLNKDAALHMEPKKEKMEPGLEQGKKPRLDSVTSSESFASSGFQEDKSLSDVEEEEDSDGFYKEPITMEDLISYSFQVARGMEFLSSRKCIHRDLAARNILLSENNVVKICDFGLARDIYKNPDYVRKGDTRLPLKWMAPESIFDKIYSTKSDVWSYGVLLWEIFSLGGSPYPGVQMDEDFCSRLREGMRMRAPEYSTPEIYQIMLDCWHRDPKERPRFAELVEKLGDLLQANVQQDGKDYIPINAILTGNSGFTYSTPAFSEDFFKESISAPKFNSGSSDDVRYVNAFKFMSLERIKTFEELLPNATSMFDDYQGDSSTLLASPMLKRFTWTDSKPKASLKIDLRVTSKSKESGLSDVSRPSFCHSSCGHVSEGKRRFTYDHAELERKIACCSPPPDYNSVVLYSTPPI
Procedure, shortened: as §1

PKR(h) = biological target: T3, PKR(h) (Homo sapiens, UniProt P19525)
T3 construct: gene EIF2AK2
Procedure, shortened: as §1

PKG1β(h) = biological target: T4, PKG1β(h) (Homo sapiens, UniProt Q13976)
T4 construct: gene PRKG1; isoform 1beta
T4 sequence (Q13976 1-671): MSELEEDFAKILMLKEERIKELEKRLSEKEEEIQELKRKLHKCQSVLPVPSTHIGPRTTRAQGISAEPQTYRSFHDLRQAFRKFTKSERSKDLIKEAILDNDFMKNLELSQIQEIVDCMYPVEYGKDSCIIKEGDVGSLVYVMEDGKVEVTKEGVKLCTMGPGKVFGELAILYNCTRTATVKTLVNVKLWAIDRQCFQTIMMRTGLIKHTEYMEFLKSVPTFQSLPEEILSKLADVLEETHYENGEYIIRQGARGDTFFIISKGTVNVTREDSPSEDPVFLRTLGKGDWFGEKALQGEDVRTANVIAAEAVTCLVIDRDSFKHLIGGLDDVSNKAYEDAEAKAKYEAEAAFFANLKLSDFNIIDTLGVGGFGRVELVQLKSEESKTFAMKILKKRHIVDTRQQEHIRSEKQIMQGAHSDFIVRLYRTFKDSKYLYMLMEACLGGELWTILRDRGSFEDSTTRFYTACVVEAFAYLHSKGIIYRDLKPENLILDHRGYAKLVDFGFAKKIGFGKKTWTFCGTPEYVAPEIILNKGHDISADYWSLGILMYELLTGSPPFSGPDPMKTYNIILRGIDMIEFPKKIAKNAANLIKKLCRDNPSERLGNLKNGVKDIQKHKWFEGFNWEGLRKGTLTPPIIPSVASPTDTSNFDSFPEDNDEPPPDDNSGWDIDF
Procedure, shortened: as §1

Met(h) = Met(h) (Homo sapiens, UniProt P08581)
Procedure, shortened: as §1

ACK1(h) = biological target: T5, ACK1(h) (Homo sapiens, UniProt Q07912)
T5 construct: gene TNK2
T5 sequence (Q07912 whole entry): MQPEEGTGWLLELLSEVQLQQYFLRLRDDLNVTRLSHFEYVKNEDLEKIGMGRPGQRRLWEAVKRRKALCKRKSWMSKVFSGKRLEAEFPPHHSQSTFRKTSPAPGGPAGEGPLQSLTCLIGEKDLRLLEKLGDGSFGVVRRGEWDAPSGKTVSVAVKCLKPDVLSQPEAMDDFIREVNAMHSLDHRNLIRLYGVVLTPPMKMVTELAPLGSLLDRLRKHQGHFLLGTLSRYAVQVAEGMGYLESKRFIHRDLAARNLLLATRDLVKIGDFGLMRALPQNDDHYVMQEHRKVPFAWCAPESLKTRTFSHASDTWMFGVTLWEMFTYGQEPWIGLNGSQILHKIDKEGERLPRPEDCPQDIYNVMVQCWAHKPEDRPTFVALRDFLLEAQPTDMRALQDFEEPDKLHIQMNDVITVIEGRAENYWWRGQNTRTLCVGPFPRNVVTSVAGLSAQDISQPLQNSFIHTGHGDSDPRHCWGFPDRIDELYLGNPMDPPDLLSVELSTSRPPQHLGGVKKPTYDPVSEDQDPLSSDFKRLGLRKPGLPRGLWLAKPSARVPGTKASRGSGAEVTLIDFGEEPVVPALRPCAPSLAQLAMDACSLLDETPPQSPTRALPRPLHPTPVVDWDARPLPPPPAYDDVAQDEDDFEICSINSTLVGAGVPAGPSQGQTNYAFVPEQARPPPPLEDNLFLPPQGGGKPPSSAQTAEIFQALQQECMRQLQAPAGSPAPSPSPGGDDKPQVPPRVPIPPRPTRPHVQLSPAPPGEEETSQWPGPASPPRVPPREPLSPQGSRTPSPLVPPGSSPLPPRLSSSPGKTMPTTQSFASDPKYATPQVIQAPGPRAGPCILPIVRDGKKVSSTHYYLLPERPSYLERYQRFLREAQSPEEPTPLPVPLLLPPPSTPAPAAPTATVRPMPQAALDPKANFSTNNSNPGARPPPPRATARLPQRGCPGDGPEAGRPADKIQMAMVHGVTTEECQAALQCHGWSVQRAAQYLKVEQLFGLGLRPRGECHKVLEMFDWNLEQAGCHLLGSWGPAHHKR
Procedure, shortened: as §1

Src(1-530)(h) = biological target: T6, Src(1-530)(h) (Homo sapiens, UniProt P12931)
T6 construct: residues 1-530
Procedure, shortened: as §1

[1] = biological target: T7, PI3 Kinase (p110a(H1047R)/p85a)(m) (Mus musculus, UniProt P42337, H1047R)
T7 construct: gene Pik3ca
Procedure, shortened: as §1

TSSK3(h) = biological target: T8, TSSK3(h) (Homo sapiens, UniProt Q96PN8)
T8 sequence (Q96PN8 1-268): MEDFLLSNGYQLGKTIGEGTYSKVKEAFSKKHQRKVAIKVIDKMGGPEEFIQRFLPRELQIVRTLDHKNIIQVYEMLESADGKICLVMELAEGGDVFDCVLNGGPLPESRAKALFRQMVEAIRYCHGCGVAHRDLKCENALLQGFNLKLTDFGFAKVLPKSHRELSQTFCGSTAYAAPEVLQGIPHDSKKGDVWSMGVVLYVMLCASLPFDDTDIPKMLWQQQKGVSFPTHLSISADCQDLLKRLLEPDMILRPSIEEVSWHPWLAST
Procedure, shortened: as §1

IR(h), activated = biological target: T9, IR(h), activated (Homo sapiens, UniProt P06213)
T9 construct: gene INSR
T9 sequence (P06213 whole entry): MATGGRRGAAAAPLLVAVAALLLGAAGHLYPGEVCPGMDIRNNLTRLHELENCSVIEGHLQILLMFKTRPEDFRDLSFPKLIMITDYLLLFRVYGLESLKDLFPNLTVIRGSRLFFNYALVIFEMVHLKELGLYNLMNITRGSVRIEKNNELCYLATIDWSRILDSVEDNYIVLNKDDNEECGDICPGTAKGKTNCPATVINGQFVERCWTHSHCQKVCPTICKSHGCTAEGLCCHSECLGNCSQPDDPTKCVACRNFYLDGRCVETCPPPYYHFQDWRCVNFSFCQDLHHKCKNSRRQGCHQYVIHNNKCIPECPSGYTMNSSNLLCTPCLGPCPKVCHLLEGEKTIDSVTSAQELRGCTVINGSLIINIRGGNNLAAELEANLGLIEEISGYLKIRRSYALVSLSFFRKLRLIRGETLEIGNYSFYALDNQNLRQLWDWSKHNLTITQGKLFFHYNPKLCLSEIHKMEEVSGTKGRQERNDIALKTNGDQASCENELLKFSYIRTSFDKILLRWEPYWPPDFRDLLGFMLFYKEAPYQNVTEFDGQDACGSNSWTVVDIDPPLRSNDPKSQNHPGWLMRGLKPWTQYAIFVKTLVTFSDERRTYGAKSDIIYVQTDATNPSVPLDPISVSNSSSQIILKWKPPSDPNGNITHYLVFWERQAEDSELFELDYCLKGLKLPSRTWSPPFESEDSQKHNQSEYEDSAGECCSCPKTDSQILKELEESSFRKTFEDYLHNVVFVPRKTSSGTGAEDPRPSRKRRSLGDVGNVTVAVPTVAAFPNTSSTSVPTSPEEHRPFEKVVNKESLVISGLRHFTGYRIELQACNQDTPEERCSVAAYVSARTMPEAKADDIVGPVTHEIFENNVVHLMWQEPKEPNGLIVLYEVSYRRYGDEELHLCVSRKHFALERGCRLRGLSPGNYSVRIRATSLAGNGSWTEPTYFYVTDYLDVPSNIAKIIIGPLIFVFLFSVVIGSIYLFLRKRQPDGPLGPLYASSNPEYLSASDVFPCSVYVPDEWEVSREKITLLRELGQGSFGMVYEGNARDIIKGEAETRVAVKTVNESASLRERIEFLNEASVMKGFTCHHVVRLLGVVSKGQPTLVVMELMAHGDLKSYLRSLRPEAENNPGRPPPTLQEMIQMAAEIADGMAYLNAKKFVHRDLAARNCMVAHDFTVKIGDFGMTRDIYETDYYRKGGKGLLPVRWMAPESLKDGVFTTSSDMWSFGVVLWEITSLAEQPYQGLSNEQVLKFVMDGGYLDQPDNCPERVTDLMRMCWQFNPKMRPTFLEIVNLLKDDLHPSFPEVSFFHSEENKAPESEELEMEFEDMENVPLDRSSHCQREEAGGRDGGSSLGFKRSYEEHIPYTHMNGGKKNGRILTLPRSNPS
Procedure, shortened: as §1

[2] = read-out: Residual activity (%) 5at
[3] = read-out: Residual activity (%) 5as
[4] = read-out: Residual activity (%) 5ay
[5] = read-out: Residual activity (%) Spautin-1 5aa

Fc1ccc2ncnc(NCCc3ccc(Cl)cc3)c2c1 [5at, N-[2-(4-Chlorophenyl)Ethyl]-6-Fluoro-4-Quinazolinamine]
remaining activity at 10 µM (SIK(h); [2]): 86% | remaining activity at 10 µM (MAPKAP-K3(h); [2]): 83% | remaining activity at 10 µM (Flt1(h); [2]): 80% | remaining activity at 10 µM (PKR(h); [2]): 94% | remaining activity at 10 µM (PKG1β(h); [2]): 76% | remaining activity at 10 µM (Met(h); [2]): 112% | remaining activity at 10 µM (ACK1(h); [2]): 71% | remaining activity at 10 µM (Src(1-530)(h); [2]): 81% | remaining activity at 10 µM [1, 2]: 94% | remaining activity at 10 µM (TSSK3(h); [2]): 95% | remaining activity at 10 µM (IR(h), activated; [2]): 76%

Fc1ccc(CCNc2ncnc3ccc(F)cc23)cc1 [5as, 6-Fluoro-N-[2-(4-Fluorophenyl)Ethyl]-4-Quinazolinamine]
remaining activity at 10 µM (SIK(h); [3]): 90% | remaining activity at 10 µM (MAPKAP-K3(h); [3]): 66% | remaining activity at 10 µM (Flt1(h); [3]): 86% | remaining activity at 10 µM (PKR(h); [3]): 98% | remaining activity at 10 µM (PKG1β(h); [3]): 84% | remaining activity at 10 µM (Met(h); [3]): 57% | remaining activity at 10 µM (ACK1(h); [3]): 84% | remaining activity at 10 µM (Src(1-530)(h); [3]): 101% | remaining activity at 10 µM [1, 3]: 95% | remaining activity at 10 µM (TSSK3(h); [3]): 97% | remaining activity at 10 µM (IR(h), activated; [3]): 64%

COc1ccc2ncnc(Nc3cccc(F)c3)c2c1 [5ay, N-(3-Fluorophenyl)-6-Methoxy-4-Quinazolinamine]
remaining activity at 10 µM (SIK(h); [4]): 74% | remaining activity at 10 µM (MAPKAP-K3(h); [4]): 78% | remaining activity at 10 µM (Flt1(h); [4]): 87% | remaining activity at 10 µM (PKR(h); [4]): 71% | remaining activity at 10 µM (PKG1β(h); [4]): 94% | remaining activity at 10 µM (Met(h); [4]): 72% | remaining activity at 10 µM (ACK1(h); [4]): 56% | remaining activity at 10 µM (Src(1-530)(h); [4]): 90% | remaining activity at 10 µM [1, 4]: 93% | remaining activity at 10 µM (TSSK3(h); [4]): 104% | remaining activity at 10 µM (IR(h), activated; [4]): 71%

Fc1ccc(CNc2ncnc3ccc(F)cc23)cc1 [5aa, 6-Fluoro-N-(4-fluorobenzyl)-4-Quinazolinamine]
remaining activity at 10 µM (SIK(h); [5]): 98% | remaining activity at 10 µM (MAPKAP-K3(h); [5]): 95% | remaining activity at 10 µM (Flt1(h); [5]): 101% | remaining activity at 10 µM (PKR(h); [5]): 100% | remaining activity at 10 µM (PKG1β(h); [5]): 91% | remaining activity at 10 µM (Met(h); [5]): 82% | remaining activity at 10 µM (ACK1(h); [5]): 85% | remaining activity at 10 µM (Src(1-530)(h); [5]): 107% | remaining activity at 10 µM [1, 5]: 96% | remaining activity at 10 µM (TSSK3(h); [5]): 111% | remaining activity at 10 µM (IR(h), activated; [5]): 98%
